Assay results: patent US7605119B2, “Memory enhancing protein method” (The Research Foundation of State University of New York, priority 2000, dated 2009)
Residues, ends and D or L forms follow the SMILES beside them.

What was measured:
[1] = system: AMPA/kainate EPSCs in CA1 pyramidal cells; assay: Intracellular perfusion of PKMζ into CA1 pyramidal cells, whole-cell recording of evoked EPSCs; format: cell-based, Sprague-Dawley rats
Procedure: PKMζ, purified from a baculovirus/Sf9 expression system to near homogeneity, was perfused into a CA1 pyramidal cell through a whole cell recording pipette (FIGS. 1A-1B). […] In order to isolate AMPA/kainate responses, the cell, recorded at the soma, was voltage-clamped at the IPSC reversal potential (˜−70) and Cs-gluconate-based electrode solution was used (to block GABAB effects). […] Over 5-10 min, there was ˜60% increase in AMPA/kainate EPSCs, which then stabilized. In contrast, inactivated PKMζ had no effect.
Hippocampal slices were prepared from Sprague-Dawley rats as described in Example 2. Patch electrodes were pulled (two-stage) from […] O.D. borosilicate glass (World Precision Instruments, Sarasota, Fla.) on a Narishige PP-83 vertical puller. Recording pipettes had tip resistances of 2-5 MΩ and contain (in mM): Cs-gluconate or K-gluconate 130-; MgCl2, 2; CaCl2, 2; EGTA, 10; HEPES, 10; Na-ATP, 2; pH adjusted to 7.25 with either CsOH or KOH. […] Cesium was used to block potassium currents, including slow GABAB IPSCs. Electrode solutions included QX-314 (10 mM) to block […] currents to prevent cell spike discharges at depolarized holding potentials. Whole-cell recordings were obtained from CA1 pyramidal cells using blind patch techniques. The recording pipette was slowly advanced through the tissue, with brief voltage steps (−10 mV, 10 ms) applied to monitor electrode resistance. Once a deflection in the electrode's current response was detected signifying contact with the membrane of the target cell soma, slight negative pressure was applied to form a cell-electrode seal of >1 GΩ.
Membrane breakthrough was accomplished with either additional suction or current pulses. […] Signals were recorded under voltage-clamp with an Axoclamp 2A amplifier (Axon Instruments, Foster City, Calif.). Resting input resistance was measured from the current response to a −10 mV voltage step from holding potential. […]
The effects of PKMζ cell injection on excitatory synaptic currents were assessed by including the kinase in the whole-cell pipette and measuring EPSC amplitude over time. […]

PKMζ [2] = target: T1, PKMζ (Homo sapiens, UniProt Q05513); assay: Inhibition of phosphorylation of exogenous substrates by various protein kinases (specificity of chelerythrine); format: biochemical; conditions: versus PKC alpha, PKC epsilon (MBP substrate), CaM-kinase II (Syntide)
T1 construct: made in house; host or cells: Spodoptera frugiperda Sf9 cells, baculovirus
T1 sequence (Q05513 1-409 isoform Q05513-2): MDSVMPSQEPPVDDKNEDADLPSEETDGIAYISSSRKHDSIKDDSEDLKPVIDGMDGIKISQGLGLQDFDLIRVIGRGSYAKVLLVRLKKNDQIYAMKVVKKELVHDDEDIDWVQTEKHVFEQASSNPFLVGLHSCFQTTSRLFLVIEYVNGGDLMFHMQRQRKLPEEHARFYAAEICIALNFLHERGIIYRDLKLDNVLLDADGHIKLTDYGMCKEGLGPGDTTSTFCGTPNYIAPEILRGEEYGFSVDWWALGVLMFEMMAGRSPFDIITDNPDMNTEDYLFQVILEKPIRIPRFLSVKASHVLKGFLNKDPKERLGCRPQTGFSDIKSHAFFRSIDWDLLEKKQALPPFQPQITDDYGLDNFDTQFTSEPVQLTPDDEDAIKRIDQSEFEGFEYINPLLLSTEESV
From the text: PKCA is PKC alpha phosphorylation of myelin basic protein (MBP). PKCE is PKC epsilon phosphorylation of MBP. PKM is PKMζ phosphorylation of MBP. CKII is Ca^2+-calmodulin-dependent protein kinase II phosphorylation of Syntide® (Calbiochem, San Diego, Calif.) peptide substrate.

LTP maintenance = assay: Reversal of LTP maintenance; format: cell-based; conditions: 1 μM
PKC gamma = PKC gamma (Homo sapiens, UniProt P05129); assay: Inhibition of PKC gamma (IC50); format: biochemical
PKMζ [3] = target: T1, PKMζ; assay: Inhibition of PKMζ (IC50); format: biochemical

COc1ccc2c(c[n+](C)c3c4cc5c(cc4ccc23)OCO5)c1OC [chelerythrine]
reversal of PKMζ-induced increases in synaptically evoked AMPA/kainate responses ([1]; 3 nM PKM in pipette, chelerythrine 1 uM in bath): reversible
selectivity as an inhibitor of PKM activity relative to other protein kinases (PKMζ [2]): greater than 10 fold

PKMζ: independent catalytic domain of the PKCζ isoform, purified from a baculovirus/Sf9 expression system
increase in AMPA/kainate EPSCs ([1]; about 0.8 nM PKMζ in whole cell pipette, over 5-10 min, then stabilized, voltage-clamped ~-70): ~60%
potency in potentiation of AMPA/kainate currents relative to CaM-kinase II ([1]; compared with reported concentration of autoactive thiophosphorylated CaM-kinase II): 200- to 1000 fold

CCCCCCCCCCCCCC(=O)N[C@@H](CO)C(=O)N[C@H](C(=O)N[C@@H](Cc1ccc(O)cc1)C(=O)N[C@@H](CCCNC(=N)N)C(=O)N[C@@H](CCCNC(=N)N)C(=O)NCC(=O)N[C@@H](C)C(=O)N[C@@H](CCCNC(=N)N)C(=O)N[C@@H](CCCNC(=N)N)C(=O)N[C@@H](Cc1c[nH]c2ccccc12)C(=O)N[C@@H](CCCNC(=N)N)C(=O)N[C@@H](CCCCN)C(=O)N[C@@H](CC(C)C)C(=O)O)[C@@H](C)CC [MZIP, myr-Ser-Ile-Tyr-Arg-Arg-Gly-Ala-Arg-Arg-Trp-Arg-Lys-Leu-OH] (HELM PEPTIDE1{[CCCCCCCCCCCCCC(=O)[*:2]].S.I.Y.R.R.G.A.R.R.W.R.K.L}$$$$V2.0)
effect on LTP maintenance (LTP maintenance): reverses LTP maintenance
IC50 (PKC gamma): 10 µM
IC50 (PKMζ [3]): 0.01 to 0.1 µM
